Laboratory results published in PMC9995496, “A screen for MeCP2-TBL1 interaction inhibitors using a luminescence-based assay” (Scientific Reports, 2023).
Counter-ions that a name gives are not always drawn.

Tested on: PRKACA-PRKAR2A interaction (SmBiT-PRKACA / LgBiT-PRKAR2A), protein kinase A
Parameters: NanoLuc complementation counter-screen in cell extract, PRKACA with PRKAR2A, loss of luminescence, detects NanoLuc interference
Details: 0.5 h, 20 µM; inhibitor

SMILES | Inh (PKA)
N[C@@H](Cc1ccc(N(CCCl)CCCl)cc1)C(=O)O [UM0132725:02, Melphalan] | 3.23
CCOC(=O)c1cncn1[C@H](C)c1ccccc1 [UM0133274:02, Etomidate] | 13.38%

Same assay, conditions: counter-screen for NanoLuc interference, 0.5 h, 20 µM, inhibitor, Inh (PKA)

SMILES | Inh (PKA)
CCCC(CCC)C(=O)O [UM0128554:02, Valproic acid] | -0.4434%
C#Cc1cccc(Nc2ncnc3cc(OCCOC)c(OCCOC)cc23)c1 [UM0130975:02, Erlotinib Hydrochloride] | 10.54%
CS(=O)(=O)N1CCN(Cc2cc3nc(-c4cccc5[nH]ncc45)nc(N4CCOCC4)c3s2)CC1 [UM0130976:02, GDC-0941] | 3.012%
Cc1ccc(NC(=O)c2ccc(CN3CCN(C)CC3)cc2)cc1Nc1nccc(-c2cccnc2)n1 [UM0130978:02, Imatinib Mesylate (STI571)] | 10.22%
CS(=O)(=O)CCNCc1ccc(-c2ccc3ncnc(Nc4ccc(OCc5cccc(F)c5)c(Cl)c4)c3c2)o1 [UM0130979:02, Lapatinib Ditosylate] | 54.72%
CNC(=O)c1cc(Oc2ccc(NC(=O)Nc3ccc(Cl)c(C(F)(F)F)c3)cc2)ccn1 [UM0130993:02, Sorafenib Tosylate] | 7.099%
COc1ccc2c3c1O[C@H]1C[C@@H](O)C=C[C@@]31CCN(C)C2 [UM0132882:02, Galanthamine HBr] | 0.1906%

Same assay, conditions: counter-screen for NanoLuc interference; 0.5 h, 20 µM; inhibitor

SMILES | Inh (PKA)
O=c1ncccn1[C@@H]1O[C@H](CO)[C@@H](O)[C@H]1O [UM0128549:02, Zebularine] | -0.4631%
O=C(c1ccc(Cl)cc1Cl)n1nnc2ccccc21 [UM0128552:02, ITSA-1 (ITSA1)] | 13.93%
NC(=O)C1CCCc2c1[nH]c1ccc(Cl)cc21 (stereo not shown) [UM0128555:02, EX 527 (SEN0014196)] | 3.362%
Oc1ccc(/C=C/c2cc(O)cc(O)c2)cc1 [UM0128556:03, Resveratrol] | 25.41%
Oc1cc(O)cc(/C=C/c2ccc(O)c(O)c2)c1 [UM0128559:03, Piceatannol] | 17.81%
CCCCCCCCCCCCCCCc1cccc(O)c1C(=O)O [UM0128565:02, Anacardic acid] | 5.402%
CC(C)C(=O)SCCCCCCC(=O)Nc1nc(-c2ccccc2)cs1 [UM0128574:02, NCH 51] | 3.39%
CC(=O)Nc1ccc(C(=O)Nc2ccccc2N)cc1 [UM0128575:02, CI994 (Tacedinaline)] | -1.752%
O=Nc1ccc(O)c2ncccc12 [UM0128576:03, NSC 3852] | 10.59%
COc1cc2c(NC3CCN(C(C)C)CC3)nc(C3CCCCC3)nc2cc1OCCCN1CCCC1 [UM0128581:02, UNC0638] | 0.9337%
CCN(c1cc(-c2ccc(CN3CCOCC3)cc2)cc(C(=O)NCc2c(C)cc(C)[nH]c2=O)c1C)C1CCOCC1 [UM0129937:03, EPZ-6438] | 4.351%
COc1cc2c(NC3CCN(C4CCCCC4)CC3)nc(N3CCCN(C(C)C)CC3)nc2cc1OCCCN1CCCCC1 [UM0129939:02, UNC 0646] | 0.2399%
Cn1cnc2c(F)c(Nc3ccc(Br)cc3Cl)c(C(=O)NOCCO)cc21 [UM0130968:04, AZD6244 (Selumetinib)] | 16.5%
O=C(NOCC1CC1)c1ccc(F)c(F)c1Nc1ccc(I)cc1Cl [UM0130972:02, PD184352 (CI-1040)] | 70.13%
COc1cc2nccc(Oc3ccc(NC(=O)NC4CC4)c(Cl)c3)c2cc1C(N)=O [UM0130973:02, Lenvatinib (E7080)] | 3.422%
Cn1cc(C2=C(c3cn(C4CCN(Cc5ccccn5)CC4)c4ccccc34)C(=O)NC2=O)c2ccccc21 [UM0130974:02, Enzastaurin (LY317615)] | 49.88%
CC(=O)Nc1cccc(-n2c(=O)n(C3CC3)c(=O)c3c(Nc4ccc(I)cc4F)n(C)c(=O)c(C)c32)c1 [UM0130977:03, Trametinib (GSK1120212)] | 2.214%
Nc1cccc2c1CN(C1CCC(=O)NC1=O)C2=O (stereo not shown) [UM0130980:03, Lenalidomide (CC-5013)] | -1.488%
NC1(c2ccc(-c3nc4ccn5c(=O)[nH]nc5c4cc3-c3ccccc3)cc2)CCC1 [UM0130983:02, MK-2206 dihydrochloride] | 6.14%
Cc1ccc(C(=O)Nc2cccc(C(F)(F)F)c2)cc1Nc1nc(-c2cccnc2)nc2c1cnn2C [UM0130987:02, NVP-BHG712] | 37.9%
CC(C)(C)c1cc(NC(=O)Nc2ccc(-c3cn4c(n3)sc3cc(OCCN5CCOCC5)ccc34)cc2)no1 [UM0130989:03, Quizartinib (AC220)] | 1.247%
COc1ccc(Cl)c(Nc2nc3ccccc3nc2NS(=O)(=O)c2cccc(NC(=O)C(C)(C)N)c2)c1 [UM0130997:02, XL147] | 61.81%
Cc1ccc(NC(=O)c2cccc(N(C)C)c2)cc1NC(=O)c1ccc(O)cc1 [UM0130998:02, ZM336372] | 21.08%
CCN(CC)CCCCNc1ncc2cc(-c3cc(OC)cc(OC)c3)c(NC(=O)NC(C)(C)C)nc2n1 [UM0131000:03, PD 173074] | 0.205%
COc1cc2nccc(Oc3ccc(NC(=O)Nc4ccc(F)cc4F)c(F)c3)c2cc1OC [UM0131001:04, Ki8751] | 5.997%
CCN(CC)CCOc1ccc(C(=C(Cl)c2ccccc2)c2ccccc2)cc1 [UM0132668:02, Clomiphene citrate] | 14.01%

SMILES | Inh (PKA)
Cn1ccnc1S [UM0132728:02, Methimazole] | 3.033%
CCCc1cc(=O)[nH]c(=S)[nH]1 [UM0132755:02, Propylthiouracil] | 1.031%
Cn1c(=O)c2nc[nH]c2n(C)c1=O [UM0132766:02, Theophylline] | -0.2913%
CNCCc1ccccn1 [UM0132794:02, Betahistine 2HCl] | 2.049%
COc1c(C)c2c(c(O)c1C/C=C(\C)CCC(=O)O)C(=O)OC2 [UM0132795:02, Mycophenolic acid] | 1.414%
O=c1ccc2cc(O)c(O)cc2o1 [UM0132846:02, 6,7-Dihydroxycoumarin] | 4.392%
CCOC(=O)[C@H](CCc1ccccc1)N[C@@H](C)C(=O)N1CCC[C@H]1C(=O)O [UM0132889:02, Enalapril Maleate] | -0.0661%
Nc1nc(=O)c2nc(CNc3ccc(C(=O)N[C@@H](CCC(=O)O)C(=O)O)cc3)cnc2[nH]1 [UM0132892:02, Folic acid] | 2.052%
CC(=O)/N=c1/sc(S(N)(=O)=O)nn1C [UM0132958:02, Methazolamide] | 0.8823%
CCN1CCN(c2cc3c(cc2F)c(=O)c(C(=O)O)cn3C2CC2)CC1 [UM0132985:02, Enrofloxacin] | 1.786%
C=CC[C@@H]1/C=C(\C)C[C@H](C)C[C@H](OC)[C@H]2O[C@@](O)(C(=O)C(=O)N3CCCC[C@H]3C(=O)O[C@H](/C(C)=C/[C@@H]3CC[C@@H](O)[C@H](OC)C3)[C@H](C)[C@@H](O)CC1=O)[C@H](C)C[C@@H]2OC [UM0132999:02, Tacrolimus (FK506)] | 15.44%
CC[C@H](C)C(=O)O[C@H]1C[C@@H](C)C=C2C=C[C@H](C)[C@H](CC[C@@H]3C[C@@H](O)CC(=O)O3)[C@H]21 [UM0133001:02, Lovastatin] | 15.39%
CS(=O)(=O)c1ccc(C2=C(c3ccccc3)C(=O)OC2)cc1 [UM0133054:02, Rofecoxib] | 1.384%
CCCCC1=NC2(CCCC2)C(=O)N1Cc1ccc(-c2ccccc2-c2nnn[nH]2)cc1 [UM0133057:02, Irbesartan] | 5.211%
CC1COc2c(N3CCN(C)CC3)c(F)cc3c(=O)c(C(=O)O)cn1c23 (stereo not shown) [UM0133058:02, Ofloxacin] | -0.3552%
Cc1ccc(=O)n(-c2ccccc2)c1 [UM0133133:02, Pirfenidone] | 0.9802%
CCOC(=O)[C@H](CCc1ccccc1)N[C@@H](C)C(=O)N1[C@H](C(=O)O)C[C@@H]2CCC[C@@H]21 [UM0133179:02, Ramipril] | 0.6461%
C/C=C1\[C@H]2C=C(C)C[C@]1(N)c1ccc(=O)[nH]c1C2 [UM0133189:02, (-)-Huperzine A] | 0.2799%
COc1ccc(-c2oc3c(CC=C(C)C)c(O[C@@H]4O[C@H](CO)[C@@H](O)[C@H](O)[C@H]4O)cc(O)c3c(=O)c2O[C@@H]2O[C@@H](C)[C@H](O)[C@@H](O)[C@H]2O)cc1 [UM0133190:02, Icariin] | 17.39%
CNCC[C@H](Oc1cccc2ccccc12)c1cccs1 [UM0133232:02, Duloxetine HCl] | 23.56%
CN(C/C=C/C#CC(C)(C)C)Cc1cccc2ccccc12 [UM0133235:02, Terbinafine HCl] | 7.743%
Oc1cc(Cl)ccc1Oc1ccc(Cl)cc1Cl [UM0133255:02, Triclosan] | 50.68%
CN1CC(=O)N2[C@H](c3ccc4c(c3)OCO4)c3[nH]c4ccccc4c3C[C@@H]2C1=O [UM0133276:02, Tadalafil] | 5.88%
CN(C)CCOc1ccc(/C(=C(/CCCl)c2ccccc2)c2ccccc2)cc1 [UM0133287:02, Toremifene Citrate] | 53.21%
CC(=O)NCCCS(=O)(=O)O [UM0133300:02, Acamprosate calcium] | 0.9397%
CSc1nc2cc(Cl)c(Oc3cccc(Cl)c3Cl)cc2[nH]1 [UM0133345:02, Triclabendazole] | 37.19%
